“Also recorded” adds a separate entry of the source. Read-outs that look alike come from different tables or passages of the source.
Columns and labels:
[1] = test system: C. difficile R20291 spores; test: C. difficile spore germination assay (optical density, OD580); conditions: Clostridioides difficile, R20291SPORES; for activity at 125 µM: compound 125 μM
[2] = Incubation with feces / murine microbiota (degradation); format: in vitro ADME; conditions: 3 days incubation with feces
C. difficile 630 strain [3] = conditions: literature, cited from earlier work; for IC50: read-out: IC50 against 630 strain
C. difficile 630 strain [4] = test: Spore germination inhibition against C. difficile 630 strain (literature); format: cell-based
[5] = test system: C. difficile R20291 spores; conditions: literature, cited from earlier work
[6] = target: C. difficile spore germination; conditions: literature values; read-out: Ki, inhibition of germination; cited from earlier work
[7] = Table 3, 6 mM taurocholate, 12 mM glycine
[8] = read-out: % Germination, Table 3, 6 mM taurocholate, 12 mM glycine, ± standard deviation
[9] = read-out: % Germination (125 μM), Table 5, 6 mM taurocholate, 12 mM glycine, 100% indicates no inhibition

## C[C@H](CCc1ncc2ccccc2n1)[C@H]1CC[C@H]2[C@@H]3[C@H](O)C[C@@H]4C[C@H](O)CC[C@]4(C)[C@H]3C[C@H](O)[C@]12C [Compound 29]
[1]; [7]
  IC50: 22 ± 3 µM
[1]; [8]
  activity at 125 µM: 17 ± 3%
[2]
  Degradation on incubation with feces: not degraded

## C[C@H](CCC(=O)Nc1cccc(S(=O)(=O)O)c1)[C@H]1CC[C@H]2[C@@H]3[C@H](O)C[C@@H]4C[C@H](O)CC[C@]4(C)[C@H]3CC[C@]12C [chenodeoxycholic analog of CamSA]
C. difficile 630 strain [3]
  IC50: 6500 µM
C. difficile 630 strain [4]
  Potency relative to the cholate derivative CamSA (less potent): approximately 100 fold

## C[C@H](CCC(=O)Nc1ccccc1)[C@H]1CC[C@H]2[C@@H]3[C@H](O)C[C@@H]4C[C@H](O)CC[C@]4(C)[C@H]3CC[C@]12C [Compound 53]
[1]; Table 5, 6 mM taurocholate, 12 mM glycine
  IC50: 4 ± 0.5 µM
[1]; [9]
  activity at 125 µM: 14 ± 0.6%
C. difficile 630 strain [3]
  Activity against 630 strain: inactive up to the maximum tested concentration

## C[C@H](CCC(=O)Nc1ccccc1)[C@H]1CC[C@H]2[C@@H]3CCC4CCCC[C@]4(C)[C@H]3CC[C@]12C (stereo partly shown) [N-(Phenyl)-cholan-24-amide]
C. difficile 630 strain [3]
  IC50: 270 µM
[5]; R20291 strain, read-out: IC50 against R20291 strain
  IC50: 1.8 µM

## C[C@H](CCC(=O)O)[C@H]1CC[C@H]2[C@@H]3[C@H](O)C[C@@H]4C[C@H](O)CC[C@]4(C)[C@H]3CC[C@]12C [chenodeoxycholate]
[6]
  Ki: 378 µM

## C[C@H](CCc1nc2ccccc2c(=O)[nH]1)[C@H]1CC[C@H]2[C@@H]3[C@H](O)C[C@@H]4C[C@H](O)CC[C@]4(C)[C@H]3C[C@H](O)[C@]12C [Compound 43]
[1]; [7]
  IC50: 20 ± 11 µM
[1]; [8]
  activity at 125 µM: 32 ± 0.6%

## Cc1ccc(F)cc1NC(=O)CC[C@@H](C)[C@H]1CC[C@H]2[C@@H]3[C@@H](O)C[C@@H]4C[C@H](O)CC[C@]4(C)[C@H]3CC[C@]12C [Compound 68]
[1]; [9]
  activity at 125 µM: 100%

## C[C@H](CCC(=O)N1CCc2ccccc21)[C@H]1CC[C@H]2[C@@H]3[C@H](O)C[C@@H]4C[C@H](O)CC[C@]4(C)[C@H]3C[C@H](O)[C@]12C [Compound 1]
[1]; Table 2, 6 mM taurocholate, 12 mM glycine
  IC50: 1 ± 0.3 µM
[1]; read-out: % Germination, Table 2, 6 mM taurocholate, 12 mM glycine, ± standard deviation
  activity at 125 µM: 4 ± 1%
[1]; read-out: IC50 against the R20291 strain, R20291 strain
  IC50: 1 µM

## C[C@H](CCC(=O)Nc1cccc(S(=O)(=O)O)c1)[C@H]1CC[C@H]2[C@@H]3[C@H](O)C[C@@H]4C[C@H](O)CC[C@]4(C)[C@H]3C[C@H](O)[C@]12C [CamSA]
[6]
  Ki: 50 µM
C. difficile 630 strain [3]
  IC50: 58 µM
  Activity against 630 strain: active
[5]; hypervirulent R20291 strain
  Activity against R20291 strain: no inhibitory or prophylactic activity; also recorded: inactive

## C[C@H](CCc1nc(-c2ccccc2)c2ccccc2n1)[C@H]1CC[C@H]2[C@@H]3[C@H](O)C[C@@H]4C[C@H](O)CC[C@]4(C)[C@H]3C[C@H](O)[C@]12C [Compound 31]
[1]; [8]
  activity at 125 µM: 92 ± 4%
